Paper PMC9343747 (Phytochemistry Letters, 2022)

What was measured:
SARS-CoV-2 pseudovirus [1] = assay: microbe, parasite or virus in culture; format: cell-based; settings: Severe acute respiratory syndrome-related coronavirus, read-out: Inhibition rate (%), 5.0 µM, BHK-21-hACE2 cells
SARS-CoV-2 pseudovirus [2] = assay: microbe, parasite or virus in culture; format: cell-based; settings: Severe acute respiratory syndrome-related coronavirus, read-out: EC50, concentration resulting in 50% inhibition of virus replication
in vitro = settings: hamster, Cell viability (%), BHK-21-hACE2 cells
[3] = test system: influenza virus A/Puerto Rico/8/34 (H1N1); format: cell-based; settings: read-out: IC50, concentration resulting in 50% inhibition of virus replication; A/Puerto Rico/8/34 (H1N1) in MDCK cells

Structure (SMILES) | inhibition at 5 µM (SARS-CoV-2 pseudovirus [1]) | EC50 (SARS-CoV-2 pseudovirus [2]) | viability at 20 µM (in vitro) | IC50 [3]
CCN(CC)Cc1cc(Nc2ccnc3cc(Cl)ccc23)ccc1O [Amodiaquine, amodiaquine] | 92.4% | 3.17 µM | 107% | –
CCC(CC)O[C@@H]1C=C(C(=O)O)C[C@H](N)[C@H]1NC(C)=O [Oseltamivir carboxylate] | – | – | – | 6.4 µM
